According to US7589077B2, “Antiviral nucleosides” (priority 2001, dated 2009):
Values after ≈ are worked out from the molar mass of the structure shown. Like-named read-outs stand apart in the source and are kept apart here.

Assays:
[1] = tested on: duck hepatitis B virus (DHBV); experiment: DHBV DNA replication in primary duck hepatocytes (dot blot hybridization); type: cell-based
Experimental: A series of compounds were synthesized and assayed for activity against duck hepatitis B virus (DHBV). […] Test compounds were added to the hepatocyte cultures on day 2 and maintained in culture with media changed every second day until day 12. Cell were harvested at day 14 and lysed with buffer containing 1% SDS. DNA was isolated from the lysate and dot blot hybridization was performed using a DHBV (32P) DNA probe. […]
(§1) The compounds were assayed for a) their ability to inhibit DHBV DNA replication in duck hepatocytes, b) their ability to inhibit HBV DNA replication in HepG2 2.2.15 cells, c) the cell cytotoxicity in Vero cells, the cell viability in HFF cells, d) the cell proliferation in HFF cells, and e) the T cell proliferation (purified T cells, PHA stimulated). 3-TC was used as a control.

human HBV = experiment: HBV DNA replication in HepG2 2.2.15 cells; type: cell-based, hepatitis B virus
Experimental: as §1, with “control. Additional compounds described below in the Preparative Examples section were also tested, and the results are shown in Tables 2-4 below. The reference numbers for the compounds are found in the Preparative Examples.” for “control.”

[2] = Cell cytotoxicity in Vero cells; type: cell-based; conditions: African green monkey, Vero cells
Experimental: as §1

[3] = Cell viability in HFF cells (neutral red); type: cell-based, human; conditions: human, HFF cells
Experimental: (§2) Twenty-four hours prior to assay HFF cells were plated into 96 well plates at a concentration of 2.5×10^4 cells per well. […] The plates were incubated for 7 days in a CO2 incubator at 37° C. At this time the media/drug was aspirated and 200 μL/well of 0.01% neutral red in Dulbecco's Phosphate Buffered Saline (DPBS) was added. This was incubated in the CO2 incubator for 2 h, the dye was aspirated and the cells were washed using a Nunc Plate Washer. After removing the DPBS wash, […] of 50% EtOH: 1% glacial acetic acid in water was added. The plates were rotated for 15 min. and the optical densities were read at 550 nm on a plate reader.

HFF cells [4] = experiment: Cell proliferation assay in HFF cells; type: cell-based, human; conditions: Table 2; for IC50: Homo sapiens, HFF
Experimental: The media from the wells was then aspirated and 2 mL of each drug concentration was then added to each well. The cells were incubated in a CO2 incubator at 37° C. for 72 h. At the end of this time, the media-drug solution was removed and the cells were washed. […] The cell-media mixture was then pipetted up and down vigorously to break up the cell suspension and 0.2 mL of the mixture was added to 9.8 mL of isoton III and counted using a Coulter Counter. Each sample was counted three times with three replicate wells per sample.

VZV (Ellen) = experiment: CPE inhibition assay VZV (Ellen) in HFF cells; type: cell-based, varicella zoster virus; conditions: for EC50: Human alphaherpesvirus 3, HFF, Table 2
Experimental: (§3) Cytopathic effect (CPE) inhibition assays for HSV-1, HSV-2, HCMV and VZV were performed as follows: Low passage human foreskin fibroblasts (HFF) cells were seeded into 96 well tissue culture plates 24 h prior to use at a cell concentration of 2.5×10^4 cells per mL in 0.1 mL of minimal essential medium (MEM) supplemented with 10% fetal bovine serum (FBS). The cells were then incubated for 24 h at 37° C. in a CO2 incubator. After incubation, the medium was removed and 100 μL of MEM containing 2% FBS was added to all but the first row. In the first row, 125 μL of experimental drug was added in triplicate wells. Medium alone was added to both cell and virus control […]. After incubation, the medium was removed and 100 μl of MEM containing 2% FBS was added to all but the first row. Medium alone was added to both cell and virus control wells. 125 μl of Experimental drug was added in triplicate wells. The drug in the first row of wells was then diluted serially 1:5 throughout the remaining wells by transferring 25 μL using the Cetus Liquid Handling Machine. After dilution of drugs, 100 μL of the appropriate virus concentration was added to each well, excluding the cell control wells which received 100 μL of MEM. For HSY-1 and HSV-2 assays, the virus concentration utilized was 1000 PFU's per well. For CMV and VZV assays, the virus concentration added was 2500 PFU's per well. The plates were then incubated at 37° C. in a CO2 incubator for 3 days for HSV-1 and HSV-2, 10 days for VZV, or 14 days for CMV. After the incubation period, media was aspirated and the cells stained with a 0.1% crystal violet solution for 30 min. The stain was then removed and the plates were allowed to dry 24 h and then read on a Skatron Plate Reader at 620 nm.

HCMV (AD169) = experiment: CPE inhibition assay HCMV (AD169) in HFF cells; type: cell-based, human cytomegalovirus; conditions: for EC50: Human betaherpesvirus 5, AD169, HFF, Table 2
Experimental: as §3

Vero cells = experiment: Cell cytotoxicity in Vero cells; type: cell-based
Experimental: as §1

HFF cells [5] = experiment: Cell viability in HFF cells (neutral red); type: cell-based, human
Experimental: as §2

HSV-1 (KOS) HSV-TK+ = HSV-1 (KOS) HSV-TK+ antiviral assay; type: cell-based, Herpes simplex virus type-1; conditions: Table 4
Experimental: as §3

HSV-1 (KOSSB) HSV-TK− = experiment: microbe, parasite or virus in culture; type: cell-based, Herpes simplex virus type-1; conditions: Table 4
Experimental: as §3, with “The” for “Cytopathic effect (CPE) inhibition assays for HSV-1, HSV-2, HCMV and VZV were performed as follows: Low passage human foreskin fibroblasts (HFF) cells were seeded into 96 well tissue culture plates 24 h prior to use at a cell concentration of 2.5×10^4 cells per mL in 0.1 mL of minimal essential medium (MEM) supplemented with 10% fetal bovine serum (FBS). The”

Epstein-Barr Virus (EBV) = experiment: EBV immunofluorescence assay in DAUDI cells (P3HR-1 strain); type: cell-based
Experimental: The immunofluorescence assay, using monoclonal antibodies, for Epstein-Barr Virus (EBV) was performed as follows: DAUDI cells were infected with the P3HR-1 strain of EBV and the test drug was added after adsorption (45 min. at 37° C.) and washing of the cell cultures. These cultures were then incubated for 2 days in complete medium to allow viral gene expression. Following the 48 h incubation period, the number of cells in each sample were counted and smears were made. Monoclonal antibodies to the different early antigen (EA) components and VCA were than added to the cells, incubated and washed. This was followed by the addition of a fluorescein conjugated rabbit anti mouse Ig antibodies. The number of fluorescence positive cells in the smears were counted and the total number of cells in the cultures positive for EA or VCA were then calculated and compared.

whole human PBLs = experiment: Cell proliferation, whole human PBLs; type: cell-based; conditions: Table 1
HSV-1 (E-377) = experiment: CPE inhibition assay HSV-1 (E-377) in HFF cells; type: cell-based, Herpes simplex virus type-1; conditions: Table 4
Experimental: as §3

HSV-2 (MS) = experiment: CPE inhibition assay HSV-2 (MS) in HFF cells; type: cell-based, Herpes simplex virus type-2; conditions: Table 4
Experimental: as §3

[6] = Duck hepatitis B virus, Hepatocyte, read-out: % Inh. of DHBV DNA in duck hepatocytes @ 10 μg/ml
[7] = Duck hepatitis B virus, Hepatocyte, Table 2, value in brackets, read-out: DHBV DNA in duck hepatocytes [EC50, μg/ml]

Compound | inhibition at 10 µg/mL [1, 6] | EC50 [1, 7] | CC50 ([2]; Table 2) | CC50 at 7 days ([3]; Table 2) | IC50 (HFF cells [4]) | EC50 (VZV (Ellen)) | EC50 (HCMV (AD169)) | also measured
Nc1ccn([C@@H]2CS[C@H](CO)O2)c(=O)n1 [Compound 3-TC, lamivudine, reference compound] | 96% | 0.01 to 0.05 µg/mL |  |  |  |  |  | inhibition at 1 µg/mL ([1]; Duck hepatitis B virus, Hepatocyte, read-out: % Inhibition of DHBV DNA in duck hepatocytes @1.0 μg/ml): 95%; inhibition at 10 µg/mL ([1]; Duck hepatitis B virus, Hepatocyte, read-out: % Inhibition of DHBV DNA in duck hepatocytes @10.0 μg/ml): 100%; EC50 ([1]; Duck hepatitis B virus, Hepatocyte, Table 3a, read-out: % Inhibition of DHBV DNA in duck hepatocytes EC50): 0.07 µM; inhibition at 0.1 µg/mL (human HBV; Hepatitis B virus, HepG2 2.2.15, read-out: % Inh. of human HBV DNA replication in HepG2 2.2.15 cells @ 0.1 μg/ml (left)): 90%; CC50 ([2]; Table 5): > 100 mg/L; CC50 at 7 days ([3]; Table 5): > 100 mg/L
C=C(N=[N+]=[N-])c1cn(COCCO)c(=O)[nH]c1=O [Compound 7, 1-[(2-hydroxyethoxy)methyl]-5-(1-azidovinyl)-uracil] | 84% | 0.01 to 0.1 µg/mL | > 100 mg/L | > 100 mg/L | > 100 mg/L |  |  | 
[N-]=[N+]=NC(CCl)c1cn(COC(CO)CO)c(=O)[nH]c1=O (stereo not drawn) [Compound 10b, 1-[(2-Hydroxy-1-(hydroxymethyl)ethoxy)methyl]-5-(1-azido-2-chloroethyl)uracil] | 75% | 1 to 5 µg/mL | > 200 mg/L | > 100 mg/L | > 100 mg/L | 5 mg/L (≈ 15.6 µM) | 10 mg/L (≈ 31.3 µM) | 
[N-]=[N+]=NC(CI)c1cn(COC(CO)CO)c(=O)[nH]c1=O (stereo not drawn) [Compound 10c, 1-[(2-Hydroxy-1-(hydroxymethyl)ethoxy)methyl]-5-(1-azido-2-iodoethyl)uracil] | 75% | 1 to 5 µg/mL | > 200 mg/L | > 100 mg/L | > 100 mg/L | 1 mg/L (≈ 2.43 µM) | 10 mg/L (≈ 24.3 µM) | 
C=C(N=[N+]=[N-])c1cn(COC(CO)CO)c(=O)[nH]c1=O [Compound 13] |  |  |  |  |  |  |  | DHBV DNA in duck hepatocytes [EC50, μg/ml] ([1]; Table 2, value in brackets): 0.01 to 0.1 µg/mL; % Inh. of DHBV DNA in duck hepatocytes @ 10 μg/ml ([1]; Table 2, 10 μg/ml): 85.6%; % Inh. of human HBV DNA replication in HepG2 2.2.15 cells @ 0.01 μg/ml (right) (human HBV; Table 2, 0.01 μg/ml): 17.0%; % Inh. of human HBV DNA replication in HepG2 2.2.15 cells @ 0.1 μg/ml (left) (human HBV; Table 2, 0.1 μg/ml): 75.4%; Cell Cytotoxicity, Vero cells CC50 (Vero cells; Table 2): >200 mg/L; Cell viability HFF cells CC50 (HFF cells [5]; Table 2): >100 mg/L; Cell proliferation, HFF cells IC50 (HFF cells [4]): >100 mg/L
[N-]=[N+]=NC(CCl)c1cn(CCC(CO)CO)c(=O)[nH]c1=O (stereo not drawn) [Compound 21b, 1-[4-Hydroxy-3-(hydroxymethyl)-1-butyl]-5-(1-azido-2chloroethyl)uracil] | 84% | 0.1 to 0.5 µg/mL | > 200 mg/L | > 100 mg/L | > 100 mg/L | 6 mg/L (≈ 18.9 µM) | 1 mg/L (≈ 3.15 µM) | 
C=C(N=[N+]=[N-])c1cn(CCC(CO)CO)c(=O)[nH]c1=O [Compound 26, 1-[4-Hydroxy-3-(hydroxymethyl),1-butyl]-5-(1-azidovinyl)uracil] | 93% | 0.01 to 0.05 µg/mL | > 200 mg/L | > 100 mg/L | > 100 mg/L |  |  | 
CC1(F)C(=O)NC(=O)N2C3CC(N=[N+]=[N-])C(COC21)O3 [Compound R-13, (5R,6S)5-fluoro-O^6-5′-cyclo-5,6-dihydro-3′-azido-3′-deoxythymidine] |  |  |  |  |  |  |  | % Inhibition of DHBV DNA replication in duck hepatocytes @10 μg/ml [1]: 36.0%; CC50 (Vero cells; Table 1): > 700 µM; HSV-1 (KOS) HSV-TK+ EC50 (HSV-1 (KOS) HSV-TK+): >25 mg/L; HSV-1 (KOSSB) HSV-TK− EC50 (HSV-1 (KOSSB) HSV-TK−): >50 mg/L
CCC1(F)C(=O)NC(=O)N([C@@H]2O[C@H](CO)[C@@H](O)[C@@H]2F)C1OC (stereo partly drawn) [RC-1, 5-Ethyl-5-fluoro-6-methoxy-5,6-dihydro-2′-arabinofluoro-2′-deoxyuridine] |  |  |  |  |  |  |  | Cell Cytotoxicity, Vero cells CC50 (Vero cells; Table 5): >100 mg/L; Cell viability HFF cells CC50 (HFF cells [5]; Table 5): >100 mg/L; EBV EC50 (Epstein-Barr Virus (EBV); Table 5): <0.08 mg/L; EBV EC90 (Epstein-Barr Virus (EBV); Table 5, in parentheses): (EC90 = <0.08) μg/ml
(5S,6S)-5-bromo-O^6-5′-cyclo-5,6-dihydro-3′-azido-3′-deoxythymidine [Compound R-1] |  |  |  |  |  |  |  | EC50 (DHBV DNA replication in duck hepatocytes) ([1]; Table 1): (EC50 = 0.035 μg/ml; IC50 (whole human PBLs): 34 µM; HSV-1 (KOS) HSV-TK+ EC50 (HSV-1 (KOS) HSV-TK+): 10 to 25 mg/L; HSV-1 (KOSSB) HSV-TK− EC50 (HSV-1 (KOSSB) HSV-TK−): 1 to 10 mg/L; HSV-1 (E-377) EC50, μg/ml (HSV-1 (E-377)): 20 μg/ml; HSV-2 (MS) EC50 (HSV-2 (MS)): 20 mg/L; VZV (Ellen) EC50 (VZV (Ellen); Table 4): >100 mg/L; HCMV (AD-169) EC50 (HCMV (AD169); Table 4): 20 mg/L; EBV EC50 (Epstein-Barr Virus (EBV); Table 4): 1.4 mg/L
